Data on 3 molecules can be found in US20070093484A1, “3-Substituted 5,6-diaryl-pyrazine-2-carboxamide and -2-sulfonamide derivatives as cb1 modulators” (ASTRAZENECA AB, priority 2003, published 2007).

In this assay the target is T1, CB1 receptor (Homo sapiens, UniProt P21554).
T1 construct: expressed in transfected cells
Briefly: [35S]-GTPγS binding assay, inhibition of CP55940-stimulated activity in membranes from CB1-transfected cells. Type of assay: biochemical. To be noted: membranes from cells stably transfected with the CB1 gene; EC80 concentration of agonist CP55940; 30° C., 45 min; read-out: IC50 (concentration required to give half maximal inhibition of GTPγS binding). The text has this: Compounds of the present invention are active against the receptor product of the CB1 gene. The compounds of the present invention are active at the CB 1 receptor (IC50<1 micromolar). Most preferred compounds have IC50<200 nanomolar. The affinity of the compounds of the invention for central cannabinoid receptors is demonstrable in methods described in Devane et al, Molecular Pharmacology, 1988, 34,605 or those described in WO 01/70700 or EP 656354. Alternatively the assay may be performed as follows.
10 μg of membranes prepared from cells stably transfected with the CB1 gene were suspended in 200 μl of 100 mM NaCl, 5 mM MgCl2, 1 mM EDTA, 50 mM HEPES (pH 7.4), 1 mM DTT, 0.1% BSA and 100 μM GDP. To this was added an EC80 concentration of agonist CP55940), the required concentration of test compound and 0.1 μCi [^35S]-GTPγS. The reaction was allowed to proceed at 30° C. for 45 nun. Samples were then transferred on to GF/B filters using a cell harvester and washed with wash buffer (50 mM Tris (pH 7.4), 5 mM MgCl2, 50 mM NaCl). Filters were then covered with scintilant and counted for the amount of [35]-GTPγS retained by the filter.
Activity is measured in the absence of all ligands (minimum activity) or in the presence of an EC80 concentration of CP55940 (maximum activity). These activities are set as 0% and 100% activity respectively. At various concentrations of novel ligand, activity is calculated as a percentage of the maximum activity and plotted. The data are fitted using the equation y=A+((B−A)/1+((C/x)UD)) and the IC50 value determined as the concentration required to give half maximal inhibition of GTPγS binding under the conditions used.
A general note: GTPγS is a poorly hydrolysed GTP analogue; its binding reports G protein activation.

T1 sequence (P21554 whole entry): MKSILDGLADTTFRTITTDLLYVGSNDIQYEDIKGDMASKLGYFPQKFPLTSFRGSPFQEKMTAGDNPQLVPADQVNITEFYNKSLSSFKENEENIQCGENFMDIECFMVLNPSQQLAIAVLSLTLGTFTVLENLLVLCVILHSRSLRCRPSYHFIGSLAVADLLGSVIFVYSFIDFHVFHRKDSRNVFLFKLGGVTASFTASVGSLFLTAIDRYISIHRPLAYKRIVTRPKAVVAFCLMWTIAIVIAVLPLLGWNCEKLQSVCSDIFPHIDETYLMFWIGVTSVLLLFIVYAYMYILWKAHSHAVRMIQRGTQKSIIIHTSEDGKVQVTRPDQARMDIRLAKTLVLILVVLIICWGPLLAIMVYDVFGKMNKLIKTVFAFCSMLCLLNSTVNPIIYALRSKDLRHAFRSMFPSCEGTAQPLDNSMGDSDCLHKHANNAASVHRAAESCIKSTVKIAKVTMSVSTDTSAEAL

Take `Cc1ccc(-c2nc(Cn3cnnn3)c(C(=O)NN3CCCCC3)nc2-c2ccc(C)cc2)cc1` [Example 35, 5,6-Bis(4-methylphenyl)-N-piperidin-1-yl-3-(1H-tetrazol-1-ylmethyl)pyrazine-2-carboxamide]: the IC50 was 1.4 nM.

Consider `O=C(NN1CCCCC1)c1nc(-c2ccc(Cl)cc2)c(-c2ccc(Cl)cc2)nc1CN1CCOCC1` [Example 27, 5,6-bis(4-chlorophenyl)-3-(morpholin-4-ylmethyl)-N-piperidin-1-ylpyrazine-2-carboxamide], for which the IC50 turned out to be 13.5 nM. `CC(C)(C)NNC(=O)c1nc(-c2ccc(Cl)cc2)c(-c2ccc(Cl)cc2)nc1C(=O)OC(C)(C)C` [Example 9]: the IC50 is 1.8 nM.
